From US6376506B1, “Sulfamide-metalloprotease inhibitors” (Syntex (U.S.A.) LLC, priority 1997, dated 2002)
pIC50: −log10 of the molar value.

Tests used:
[1] = biological target: T1, human collagenase-1 catalytic domain (Homo sapiens, UniProt P03956); experiment: MMP inhibition in vitro, human collagenase-1; type: biochemical; settings: MCA-Pro-Leu-Gly-Leu-DPA-Ala-Arg-NH2 hydrolysis at 37° C.; read-out: Collagenase-I IC50
T1 construct: the collagenase-1 catalytic domain was released by treatment with 1 mM of aminophenylmercuric acetate (APMA); ubiquitin (cleaved yes); made in house; host or cells: E. coli
T1 sequence (P03956 100-269 limits assumed): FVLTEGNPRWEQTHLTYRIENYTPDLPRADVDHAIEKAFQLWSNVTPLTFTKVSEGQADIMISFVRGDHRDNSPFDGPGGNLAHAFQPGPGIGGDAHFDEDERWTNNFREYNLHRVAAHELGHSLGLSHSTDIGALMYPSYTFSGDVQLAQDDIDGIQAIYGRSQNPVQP
Procedure: The catalytic domain of human collagenase-1 was expressed as a fusion protein with ubiquitin in E. Coli as described in Gehring, E. R. et al., J. Biol. Chem., 270, 22507, (1995). After purification of the fusion protein, the collagenase-1 catalytic domain was released by treatment with 1 mM of aminophenylmercuric acetate (APMA) for 1 hour at 37° C. and then purified by zinc chelate chromatography.
(§1) The matrix metalloprotease inhibitory activity of compounds of this invention in vitro was determined based on the hydrolysis of MCA-Pro-Leu-Gly-Leu-DPA-Ala-Arg-NH2 (Bachem, Inc.) at 37° C. as described in Knight, C. G., et al., FEBS Lett., 296, 263-266 (1992).
(§2) The matrix metalloprotease enzyme was diluted with assay buffer (50 mM Tricine pH 7.5, 200 mM NaCl, 10 mM CaCl2, and 0.005% Brij-35) containing 10 μmole of above substrate dissolved in DMSO. Compounds of the invention dissolved in DMSO or only DMSO (control samples) were added such that the final DMSO concentration in all assays was 2.5%. The fluorescence changes were monitored with a Perkin-Elmer LS-50B flourimeter using an excitation wavelength of 328 nm and an emission wavelength of 393 nm.

[2] = biological target: T2, human collagenase-3 catalytic domain (Homo sapiens, UniProt P45452); experiment: MMP inhibition in vitro, human collagenase-3; type: biochemical; settings: MCA-Pro-Leu-Gly-Leu-DPA-Ala-Arg-NH2 hydrolysis at 37° C.; read-out: Collagenase-III IC50
T2 construct: After purification, the catalytic domain was released by treatment with 1 mM APMA for 1 hour at 37° C; ubiquitin (N, cleaved yes); made in house; host or cells: E. coli
Procedure: The propeptide and catalytic domain portion of human collagcenase-3 was expressed in E. Coli as an N-terminal fusion protein with ubiquitin. After purification, the catalytic domain was released by treatment with 1 mM APMA for 1 hour at 37° C., and then purified by zinc chelate chromatography.
as §1, §2

[3] = tested on: collagen matrix of bovine cartilage explants; experiment: Degradation of cartilage plug in vitro (IL-1 stimulated cartilage explant, hydroxyproline content); type: cell-based; settings: IL-1-α stimulated bovine cartilage explants, 21 days, hydroxyproline content relative to control; compounds at 10 to 300 nm
Procedure: The ability of the compounds of this invention to inhibit the degradation of the collagen matrix (as judged by release of hydroxyproline) was determined by the cartilage plug degradation assay in vitro by following a slight modification of the method described in Spirito, S., Doughty, E., et al., “Metalloproteinase inhibitors halt collagen breakdown in IL-1 induced bovine nasal cartilage cultures” Inflamm. Res., 44, Supp. 2: S131—S132, (1995).
Cartilage explants prepared from freshly sacrificed bovine knee joints were added to the culture medium (Dubelco's modified eagle medium, Gibco # 21063-001, Gibco BRL Products, Gaithersburg, Md.), without phenol red, but with HEPES, and L-glutamine and fungizone 2.5 μg/ml, gentamicin 50 μg/ml, penicillin 100 U/ml, and streptomycin 100 μg/ml). The cultures were stimulated with IL-1-α at a final concentration of 20 ng/ml. Compounds of Formula (I), were added at concentrations between 10 and 300 nm in DMSO. The control samples contained only L-1-α. The cultures were incubated at 37° C. in an atmosphere of air with 6% CO2 for 21 days during which time the medium was changed twice/week. The cartilage plugs were removed, hydrolyzed and the hydroxyproline content was determined. The MMP inhibitory activity of test materials is the measure of the hydroxyproline content in the test group relative to the vehicle treated group (control group).

[4] = tested on: bovine nasal cartilage plugs implanted subcutaneously in female Lewis rats; experiment: Cartilage plug degradation in vivo (cartilage plug implant assay, hydroxyproline content); design: species or system rat; settings: 8 or 9 days, hydroxyproline content relative to vehicle group
[5] = tested on: Human Monomac 6 cells; experiment: Inhibition of TNF release in vitro assay (LPS/PMA stimulated); type: cell-based; settings: Conc. 2 μM, LPS/PMA stimulated Monomac 6 cells, 2 h
Procedure: The activity of compounds of this invention in inhibiting the TNF release was determined, using the a minor modification of the method described in Pradines-Figueres, A. and Raetz, C. R. H., J. Biol. Chem., 267 (32), 23261, (1992).
Human Monomac 6 cells (Ziegler-Heitbrock, H. W. L., et al., Int. J. Cancer, 41, 456, (1988)) were cultured at 37° C. in RPMI 1640 medium containing 10% fetal calf serum to a density of 1×10^5 cells/ml. 0.23 ml of these cells were placed in each well of a tissue culture plate and the cells were incubated for 15 min. The test compounds were dissolved in above mentioned medium and added and the incubation was continued for an additional 15 min. 10 μl of an lipopolysaccharide/phorbol-12-myristate-13-acetate (LPS/PMA) mixture was added such that the final concentration of lipopolysaccharide was 10 ng/ml and the final concentration of phorbol-12-myristate-13-acetate was 30 ng/ml. The cells were incubated for 2 h after which the plate was centrifuged and the medium was removed and analyzed for TNF content. The analysis was performed using a TNF Quantikine® Immunoassay (R & D Systems, Minneapolis, Minn. 55413) by following the manufacturer's protocol.

[6] = tested on: TNF-α; experiment: Inhibition of LPS induced TNF-α production in mice in vivo assay; settings: female Balb/c mice, compound subcutaneously 1 h before LPS i.p., serum TNF-α 1.5 h after LPS
Procedure: The activity of compounds of this invention in inhibiting the TNF-α release was determined using a minor modification of the methods described in Zanetti, G.; Heumann, D., et. al., “Cytokine production after intravenous or peritoneal Gram-negative bacterial challenge in mice” J. Immunol., 148, 1890, (1992) and Sekut, L., Menius, J. A., et. al., “Evaluation if the significance of related levels of systemic and localized tumor necrosis factor in different animal models of inflammation” J. Lab. Clin. Med., 124, 813, (1994).
Female Balb/c mice were anesthetized and injected subcutaneously with the test compounds dissolved in CMC vehicle or hydroxypropylmethyl cellulose based vehicle. Control animals received only the vehicle. After 1 h, LPS (50 μg/mouse, Sigma #13129, Sigma Chemical Co., St. Louis, Mo.) was injected intraperitoneally. After 1.5 h, blood was collected from the retro-orbital plexus region of the animals in a microtainer serum separator tube (Becton Dickinson, Cat. No. #5960, Becton Dickinson & Co., Franklin Lakes, N.J.). The sera was separated and the amount of TNF-α was determined using the EM-TNFA® kit (Endogen, Woburn, Mass.) by following the manufacturer's protocol.

CC(C)[C@@H](NS(=O)(=O)N1CCN(c2ccc(Cl)cc2)CC1)C(=O)NO [compound 51, N-hydroxy-2-(R)-{[4-(4-chlorophenyl)piperazine-1-sulfonyl]amino}-3-methylbutyramide]
pIC50 [1]: 6.31
pIC50 [2]: 8.59
melting point: 154.1 to 154.8 °C

CC(C)[C@@H](NS(=O)(=O)N1CCC(Oc2ccc(Cl)cc2)CC1)C(=O)NO [compound 59, N-hydroxy-2-(R)-{[4-(4-chlorophenoxy)piperidine-1-sulfonyl]amino}-3-methylbutyramide]
% protection [3]: 54%
pIC50 [1]: 6.96
pIC50 [2]: 9.74
% protection [4]: 58%
melting point: 139.2 to 139.6 °C

CC(C)[C@@H](NS(=O)(=O)N1CCN(c2ccc(OCc3ccccc3)cc2)CC1)C(=O)NO [compound 74, N-hydroxy-2-(R)-{[4-(4-benzyloxyphenyl)piperazine-1-sulfonyl]amino}-3-methylbutyramide]
pIC50 [1]: 5.12
pIC50 [2]: 9.14
melting point: 149 to 156 °C

CC(C)[C@@H](NS(=O)(=O)N1CCC(Oc2ccc(Cl)cn2)CC1)C(=O)NO [compound 100, N-hydroxy-2-(R)-{[4-(5-chloropyridin-2-yloxy)piperidine-1-sulfonyl]amino}-3-methylbutyramide]
% protection [3]: 68%
% protection [4]: 40%
melting point: 97 to 98.4 °C

O=C(NO)[C@H](CSCc1ccccc1)NS(=O)(=O)N1CCN(c2ccc(Cl)cn2)CC1 [compound 102]
pIC50 [1]: 6.47
pIC50 [2]: 9.04
melting point: 86 to 86.7 °C

CC(C)[C@@H](NS(=O)(=O)N1CCC(c2nc(-c3ccccc3)c[nH]2)CC1)C(=O)NO [compound 133]
pIC50 [1]: 4.70
pIC50 [2]: 7.74
melting point: 141 to 142.3 °C

CC(C)[C@@H](NS(=O)(=O)N1CCC(Oc2ccc(F)cc2)CC1)C(=O)NO [compound 179]
pIC50 [1]: 7.64
pIC50 [2]: 10.14
melting point: 74.3 to 75.3 °C

O=C(c1ccc(Cl)cc1)C1CCN(S(=O)(=O)N2CCCC[C@@H]2C(=O)NO)CC1 [compound 242]
pIC50 [1]: 7.17
pIC50 [2]: 10.20
melting point: 84.4 to 86.4 °C

CN(C)C(=O)N1CCN(S(=O)(=O)N2CCC(c3c[nH]c4c(F)c(F)c(F)c(F)c34)CC2)[C@@H](C(=O)NO)C1 [compound 309]
pIC50 [1]: < 4.30
pIC50 [2]: 6.30
melting point: 181 to 184 °C

O=C(NO)C1(NS(=O)(=O)N2CCN(c3ccc(Cl)cc3)CC2)CCCCC1 [compound 345, N-hydroxy-1-{[4-(4-chlorophenyl)piperazine-1-sulfonyl]amino}-cyclohexane-1-carboxamide]
pIC50 [1]: 6.28
pIC50 [2]: 8.18
melting point: 146.1 to 146.6 °C

C[C@@H](NS(=O)(=O)N1CC=C(c2ccc(Cl)cc2)CC1)C(=O)NO [compound 401]
pIC50 [1]: 6.60
pIC50 [2]: 9.72
melting point: 90.7 to 93 °C

N-hydroxy-1-[4-(4,5,6,7-tetrafluoroindol-3-yl)piperazine-1-sulfonyl]piperidine-2-(RS)-carboxamide [compound 299]
pIC50 [1]: < 4.30
pIC50 [2]: 6.39
% inhibition [5]: 90%
% inhibition [6]: 52%

N-hydroxy-4-(morpholine-4-ylcarbonyl)piperazine-1-sulfonyl]-4-(S)-hydroxypiperidine-2-(R)-carboxamide [compound 321]
% inhibition [5]: 93%
% inhibition [6]: 50%
